According to article PMC4331254 (European journal of pharmacology, 2015):
Read-outs that look alike come from different tables or passages of the source.

What was measured:
I2 receptors = conditions: cited from earlier work
male Sprague-Dawley rats [1] = conditions: for antagonism of the discriminative stimulus effects of phenyzoline: 10-min pretreatment, dose ratio 95% CLs included 1; for substitution for phenyzoline discriminative stimulus: full ≥ 80%, partial ≥ 60% and < 80% training drug-appropriate responding
male Sprague-Dawley rats [2] = conditions: for antagonism of the discriminative stimulus effects of BU224: 10-min pretreatment, dose ratio 95% CLs included 1; for substitution for BU224 discriminative stimulus: full ≥ 80%, partial ≥ 60% and < 80% training drug-appropriate responding
[3] = system: rats discriminating 2-BFI; conditions: ref MacInnes and Handley, 2002, Jordan et al., 1996; cited from earlier work
rats = conditions: rat, in vivo; cited from earlier work
[4] = system: rats discriminating CR4056; conditions: ref Qiu et al., 2014a; cited from earlier work
D3 = D3 (Homo sapiens, UniProt P35462); test: Binding selectivity screening, D3; conditions: read-out: % inhibition (10nM)
alpha 2C = alpha 2C (Homo sapiens, UniProt P18825); test: Binding selectivity screening, alpha 2C; conditions: read-out: % inhibition (10nM)
D5 = D5 (Homo sapiens, UniProt P21918); test: Binding selectivity screening, D5; conditions: read-out: % inhibition (10nM)
M3 = M3 (Homo sapiens, UniProt P20309); test: biochemical; type: binding; conditions: read-out: % inhibition (10nM)
H3 = H3 (Homo sapiens, UniProt Q9Y5N1); test: Binding selectivity screening, H3; conditions: read-out: % inhibition (10nM)
D4 = D4 (Homo sapiens, UniProt P21917); test: Binding selectivity screening, D4; conditions: read-out: % inhibition (10nM)
5-HT1D = 5-HT1D (Homo sapiens, UniProt P28221); test: Binding selectivity screening, 5-HT1D; conditions: read-out: % inhibition (10nM)
κ opioid receptor = κ opioid receptor (Homo sapiens, UniProt P41145); test: Binding selectivity screening, κ opioid receptor; conditions: read-out: % inhibition (10nM)
5-HT3 = 5-HT3 (Homo sapiens, UniProt P46098); test: Binding selectivity screening, 5-HT3; conditions: read-out: % inhibition (10nM)
H4 = H4 (Homo sapiens, UniProt Q9H3N8); test: Binding selectivity screening, H4; conditions: read-out: % inhibition (10nM)
D1 = D1 (Homo sapiens, UniProt P21728); test: Binding selectivity screening, D1; conditions: read-out: % inhibition (10nM)
alpha 2A = alpha 2A (Homo sapiens, UniProt P08913); test: Binding selectivity screening, alpha 2A
M5 = M5 (Homo sapiens, UniProt P08912); test: biochemical; type: binding; conditions: read-out: % inhibition (10nM)
NET = NET (Homo sapiens, UniProt P23975); test: Binding selectivity screening, NET; conditions: read-out: % inhibition (10nM)
M4 = M4 (Homo sapiens, UniProt P08173); test: biochemical; type: binding; conditions: read-out: % inhibition (10nM)
δ opioid receptor = δ opioid receptor (Homo sapiens, UniProt P41143); test: Binding selectivity screening, δ opioid receptor; conditions: read-out: % inhibition (10nM)
5-HT5A = 5-HT5A (Homo sapiens, UniProt P47898); test: Binding selectivity screening, 5-HT5A; conditions: read-out: % inhibition (10nM)
μ opioid receptor = μ opioid receptor (Homo sapiens, UniProt P35372); test: Binding selectivity screening, μ opioid receptor; conditions: read-out: % inhibition (10nM)
alpha 2B [5] = target: alpha 2B (Homo sapiens, UniProt P35368); test: Binding selectivity screening, alpha 2B; conditions: read-out: % inhibition (10nM)
M1 = M1 (Homo sapiens, UniProt P11229); test: biochemical; type: binding; conditions: read-out: % inhibition (10nM)
H1 = H1 (Homo sapiens, UniProt P35367); test: Binding selectivity screening, H1; conditions: read-out: % inhibition (10nM)
5-HT2C = 5-HT2C (Homo sapiens, UniProt P28335); test: Binding selectivity screening, 5-HT2C; conditions: read-out: % inhibition (10nM)
5-HT7 = 5-HT7 (Homo sapiens, UniProt P34969); test: Binding selectivity screening, 5-HT7; conditions: read-out: % inhibition (10nM)
M2 = M2 (Homo sapiens, UniProt P08172); test: biochemical; type: binding; conditions: read-out: % inhibition (10nM)
SERT = SERT (Homo sapiens, UniProt P31645); test: Binding selectivity screening, SERT; conditions: read-out: % inhibition (10nM)
5-HT1B = 5-HT1B (Homo sapiens, UniProt P28222); test: Binding selectivity screening, 5-HT1B; conditions: read-out: % inhibition (10nM)
β 2 = β 2 (Homo sapiens, UniProt P07550); test: Binding selectivity screening, β 2; conditions: read-out: % inhibition (10nM)
alpha 1A = alpha 1A (Homo sapiens, UniProt P35348); test: Binding selectivity screening, alpha 1A; conditions: read-out: % inhibition (10nM)
alpha 2B [6] = target: alpha 2B (Homo sapiens, UniProt P18089); test: Binding selectivity screening, alpha 2B; conditions: read-out: % inhibition (10nM)
β 3 = β 3 (Homo sapiens, UniProt P13945); test: Binding selectivity screening, β 3; conditions: read-out: % inhibition (10nM)
DAT = DAT (Homo sapiens, UniProt Q01959); test: Binding selectivity screening, DAT; conditions: read-out: % inhibition (10nM)
5-HT2A = 5-HT2A (Homo sapiens, UniProt P28223); test: Binding selectivity screening, 5-HT2A; conditions: read-out: % inhibition (10nM)
5-HT1E = 5-HT1E (Homo sapiens, UniProt P28566); test: Binding selectivity screening, 5-HT1E; conditions: read-out: % inhibition (10nM)
β 1 = β 1 (Homo sapiens, UniProt P08588); test: Binding selectivity screening, β 1; conditions: read-out: % inhibition (10nM)
D2 = D2 (Homo sapiens, UniProt P14416); test: Binding selectivity screening, D2; conditions: read-out: % inhibition (10nM)
5-HT1A = 5-HT1A (Homo sapiens, UniProt P08908); test: Binding selectivity screening, 5-HT1A
alpha 1D = alpha 1D (Homo sapiens, UniProt P25100); test: Binding selectivity screening, alpha 1D; conditions: read-out: % inhibition (10nM)

SERT, sequence (P31645 whole entry): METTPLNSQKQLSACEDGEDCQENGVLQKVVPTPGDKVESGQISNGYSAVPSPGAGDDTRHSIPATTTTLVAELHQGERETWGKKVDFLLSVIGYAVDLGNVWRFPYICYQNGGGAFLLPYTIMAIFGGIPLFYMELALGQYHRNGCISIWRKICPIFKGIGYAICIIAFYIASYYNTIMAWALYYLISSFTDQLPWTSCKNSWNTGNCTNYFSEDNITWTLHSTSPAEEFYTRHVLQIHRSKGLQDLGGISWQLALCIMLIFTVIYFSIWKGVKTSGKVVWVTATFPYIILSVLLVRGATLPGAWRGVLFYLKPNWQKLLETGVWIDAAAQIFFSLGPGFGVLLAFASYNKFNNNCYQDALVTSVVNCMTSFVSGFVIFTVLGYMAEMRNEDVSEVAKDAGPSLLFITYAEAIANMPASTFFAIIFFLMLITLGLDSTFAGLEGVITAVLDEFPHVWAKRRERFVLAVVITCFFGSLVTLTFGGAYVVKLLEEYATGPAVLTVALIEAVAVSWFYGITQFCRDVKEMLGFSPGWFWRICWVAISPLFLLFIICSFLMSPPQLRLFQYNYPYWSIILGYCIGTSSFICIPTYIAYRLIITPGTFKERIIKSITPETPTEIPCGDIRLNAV
alpha 2A, sequence (P08913 whole entry): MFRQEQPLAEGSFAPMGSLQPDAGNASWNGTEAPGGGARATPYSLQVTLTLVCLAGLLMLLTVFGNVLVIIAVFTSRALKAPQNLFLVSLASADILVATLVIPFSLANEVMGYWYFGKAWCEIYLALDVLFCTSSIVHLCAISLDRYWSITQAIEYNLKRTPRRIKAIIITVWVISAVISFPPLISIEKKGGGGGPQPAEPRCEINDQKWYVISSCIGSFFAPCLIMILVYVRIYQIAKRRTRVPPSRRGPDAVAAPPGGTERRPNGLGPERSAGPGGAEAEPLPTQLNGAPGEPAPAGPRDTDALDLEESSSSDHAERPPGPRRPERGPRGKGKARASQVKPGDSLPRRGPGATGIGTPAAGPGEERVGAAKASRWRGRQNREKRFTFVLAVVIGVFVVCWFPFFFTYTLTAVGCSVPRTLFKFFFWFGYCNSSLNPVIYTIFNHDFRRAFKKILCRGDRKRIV
δ opioid receptor, sequence (P41143 whole entry): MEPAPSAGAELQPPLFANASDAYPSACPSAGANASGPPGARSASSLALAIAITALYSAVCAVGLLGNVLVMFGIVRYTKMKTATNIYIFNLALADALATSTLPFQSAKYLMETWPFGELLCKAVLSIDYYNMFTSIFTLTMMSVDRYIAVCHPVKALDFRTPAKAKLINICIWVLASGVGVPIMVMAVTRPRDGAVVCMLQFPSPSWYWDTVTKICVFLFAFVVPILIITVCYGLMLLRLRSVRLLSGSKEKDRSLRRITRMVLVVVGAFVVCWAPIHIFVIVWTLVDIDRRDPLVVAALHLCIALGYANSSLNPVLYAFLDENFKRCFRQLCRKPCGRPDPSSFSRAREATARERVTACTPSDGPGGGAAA
β 3, sequence (P13945 whole entry): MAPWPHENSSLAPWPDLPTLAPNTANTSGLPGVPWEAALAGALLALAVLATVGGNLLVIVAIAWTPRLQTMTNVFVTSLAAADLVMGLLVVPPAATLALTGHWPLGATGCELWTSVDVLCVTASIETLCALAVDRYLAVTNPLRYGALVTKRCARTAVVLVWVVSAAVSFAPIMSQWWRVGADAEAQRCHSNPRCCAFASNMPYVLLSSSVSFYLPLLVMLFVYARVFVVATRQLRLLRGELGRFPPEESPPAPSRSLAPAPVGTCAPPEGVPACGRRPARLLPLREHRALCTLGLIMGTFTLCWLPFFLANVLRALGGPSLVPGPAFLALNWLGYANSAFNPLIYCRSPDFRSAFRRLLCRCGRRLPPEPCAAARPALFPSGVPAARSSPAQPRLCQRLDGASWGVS
M1, sequence (P11229 whole entry): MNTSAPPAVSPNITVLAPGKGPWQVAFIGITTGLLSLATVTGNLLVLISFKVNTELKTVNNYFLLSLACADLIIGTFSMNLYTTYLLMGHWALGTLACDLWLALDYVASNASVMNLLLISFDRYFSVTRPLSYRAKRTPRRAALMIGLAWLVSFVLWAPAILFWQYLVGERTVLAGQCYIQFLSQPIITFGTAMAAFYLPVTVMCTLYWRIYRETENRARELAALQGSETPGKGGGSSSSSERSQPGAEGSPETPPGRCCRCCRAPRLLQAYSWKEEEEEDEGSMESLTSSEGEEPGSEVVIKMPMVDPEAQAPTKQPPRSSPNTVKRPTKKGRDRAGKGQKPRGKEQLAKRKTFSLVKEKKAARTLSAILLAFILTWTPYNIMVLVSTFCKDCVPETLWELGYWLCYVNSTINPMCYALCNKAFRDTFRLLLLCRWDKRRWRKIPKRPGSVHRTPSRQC
5-HT5A, sequence (P47898 whole entry): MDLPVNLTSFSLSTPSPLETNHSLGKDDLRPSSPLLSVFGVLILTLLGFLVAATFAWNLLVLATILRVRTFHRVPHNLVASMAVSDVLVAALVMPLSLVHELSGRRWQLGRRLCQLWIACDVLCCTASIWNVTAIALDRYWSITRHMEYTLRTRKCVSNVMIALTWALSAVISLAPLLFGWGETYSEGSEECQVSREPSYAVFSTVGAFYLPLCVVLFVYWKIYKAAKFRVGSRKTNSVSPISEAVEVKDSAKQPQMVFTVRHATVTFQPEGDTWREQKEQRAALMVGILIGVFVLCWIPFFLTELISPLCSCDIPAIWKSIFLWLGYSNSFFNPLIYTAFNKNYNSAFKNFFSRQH
5-HT2C, sequence (P28335 33-458): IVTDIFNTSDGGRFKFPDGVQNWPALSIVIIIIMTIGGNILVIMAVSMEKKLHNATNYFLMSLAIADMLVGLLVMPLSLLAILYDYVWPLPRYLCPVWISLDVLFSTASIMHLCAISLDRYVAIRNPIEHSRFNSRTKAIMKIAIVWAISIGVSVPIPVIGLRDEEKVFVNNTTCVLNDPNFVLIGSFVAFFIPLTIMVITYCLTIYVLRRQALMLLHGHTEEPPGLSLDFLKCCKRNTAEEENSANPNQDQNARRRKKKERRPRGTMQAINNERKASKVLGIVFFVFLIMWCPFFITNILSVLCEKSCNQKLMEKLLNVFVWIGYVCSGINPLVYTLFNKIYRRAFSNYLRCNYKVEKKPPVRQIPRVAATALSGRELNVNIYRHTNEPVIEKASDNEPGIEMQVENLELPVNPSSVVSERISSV
β 2, sequence (P07550 whole entry): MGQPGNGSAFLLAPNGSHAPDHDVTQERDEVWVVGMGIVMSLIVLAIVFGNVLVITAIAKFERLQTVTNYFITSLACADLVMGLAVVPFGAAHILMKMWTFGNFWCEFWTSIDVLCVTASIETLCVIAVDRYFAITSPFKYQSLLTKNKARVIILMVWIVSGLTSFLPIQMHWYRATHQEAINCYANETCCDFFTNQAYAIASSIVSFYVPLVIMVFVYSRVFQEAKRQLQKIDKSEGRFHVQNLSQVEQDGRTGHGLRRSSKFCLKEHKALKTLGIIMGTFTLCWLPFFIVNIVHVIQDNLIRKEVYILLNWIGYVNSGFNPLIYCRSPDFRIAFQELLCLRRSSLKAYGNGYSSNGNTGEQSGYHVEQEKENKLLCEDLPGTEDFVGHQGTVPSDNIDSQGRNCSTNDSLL
5-HT1E, sequence (P28566 whole entry): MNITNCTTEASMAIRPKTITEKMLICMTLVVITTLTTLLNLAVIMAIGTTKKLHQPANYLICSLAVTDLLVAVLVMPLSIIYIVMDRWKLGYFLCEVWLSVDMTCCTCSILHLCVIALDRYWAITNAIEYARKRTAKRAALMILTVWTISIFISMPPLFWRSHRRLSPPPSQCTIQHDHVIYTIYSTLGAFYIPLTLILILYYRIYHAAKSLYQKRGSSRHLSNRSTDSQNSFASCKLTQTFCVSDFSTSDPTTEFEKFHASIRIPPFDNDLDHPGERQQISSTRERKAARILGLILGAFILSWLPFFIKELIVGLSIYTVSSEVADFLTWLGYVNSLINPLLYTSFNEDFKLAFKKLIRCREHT
H1, sequence (P35367 whole entry): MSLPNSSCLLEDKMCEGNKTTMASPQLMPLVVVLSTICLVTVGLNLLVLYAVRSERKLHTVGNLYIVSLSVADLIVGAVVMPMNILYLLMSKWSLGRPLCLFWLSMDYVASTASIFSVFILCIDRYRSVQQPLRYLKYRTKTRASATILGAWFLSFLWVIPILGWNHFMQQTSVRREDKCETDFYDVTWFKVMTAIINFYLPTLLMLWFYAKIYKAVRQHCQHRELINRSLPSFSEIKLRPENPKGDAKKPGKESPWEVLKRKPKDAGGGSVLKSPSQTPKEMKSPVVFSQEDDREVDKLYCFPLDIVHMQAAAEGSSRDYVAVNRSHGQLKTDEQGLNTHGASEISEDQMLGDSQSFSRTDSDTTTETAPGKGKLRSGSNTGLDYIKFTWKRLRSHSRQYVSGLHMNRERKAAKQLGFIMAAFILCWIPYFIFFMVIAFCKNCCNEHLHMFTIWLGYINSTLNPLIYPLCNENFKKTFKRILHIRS
5-HT2A, sequence (P28223 whole entry): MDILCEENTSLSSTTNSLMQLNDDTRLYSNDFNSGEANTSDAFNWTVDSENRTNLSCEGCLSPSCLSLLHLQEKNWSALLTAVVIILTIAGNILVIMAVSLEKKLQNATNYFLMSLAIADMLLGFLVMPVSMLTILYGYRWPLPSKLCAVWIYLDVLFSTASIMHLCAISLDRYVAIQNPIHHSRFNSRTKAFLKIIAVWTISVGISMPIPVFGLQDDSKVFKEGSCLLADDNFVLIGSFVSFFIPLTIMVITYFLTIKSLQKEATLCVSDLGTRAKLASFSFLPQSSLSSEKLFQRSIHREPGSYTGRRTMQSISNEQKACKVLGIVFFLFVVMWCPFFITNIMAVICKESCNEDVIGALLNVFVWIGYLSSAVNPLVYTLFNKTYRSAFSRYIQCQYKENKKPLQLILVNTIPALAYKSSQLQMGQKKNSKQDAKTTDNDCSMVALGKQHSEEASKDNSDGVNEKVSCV

Clc1cccc2c1CN(C1=NCCN1)C2 [RS45041, 4-chloro-2-(imidazolin-2-yl) isoindoline]
selectivity for I2 receptors over adrenoceptors, dopamine, 5-HT, muscarinic receptors and dihydropyridine binding sites (I2 receptors; ref Brown et al., 1995): > 1000 fold | phenyzoline-appropriate (drug-associated lever) responding, maximum (male Sprague-Dawley rats [1]; substitution test in rats discriminating 32 mg/kg phenyzoline): > 80% | BU224-appropriate (drug-associated lever) responding, maximum (male Sprague-Dawley rats [2]; substitution test in rats discriminating 5.6 mg/kg BU224): > 80%

COc1ccc2c3c([nH]c2c1)C(C)=NCC3 [harmaline]
substitution for 2-BFI discriminative stimulus [3]: fully substitute

O=C(CCCN1CCC(O)(c2ccc(Cl)cc2)CC1)c1ccc(F)cc1 [haloperidol]
antagonism of the discriminative stimulus effects of phenyzoline (male Sprague-Dawley rats [1]): failed to antagonize | antagonism of the discriminative stimulus effects of BU224 (male Sprague-Dawley rats [2]): failed to antagonize

Clc1cccc(Cl)c1N=C1NCCN1 [clonidine]
substitution for phenyzoline discriminative stimulus (male Sprague-Dawley rats [1]): partial substitution | substitution for BU224 discriminative stimulus (male Sprague-Dawley rats [2]): partial or less substitution

CCC(=O)C(CC(C)N(C)C)(c1ccccc1)c1ccccc1 (centres unmarked) [methadone]
substitution for BU224 discriminative stimulus (male Sprague-Dawley rats [2]): partial or less substitution

CN1CC[C@]23c4c5ccc(O)c4O[C@H]2[C@@H](O)C=C[C@H]3[C@H]1C5 [morphine]
substitution for phenyzoline discriminative stimulus (male Sprague-Dawley rats [1]): partial substitution | substitution for BU224 discriminative stimulus (male Sprague-Dawley rats [2]): partial or less substitution

Cl.c1ccc2nc(C3=NCCN3)ccc2c1 [BU224, 2-(4,5-Dihydroimidazol-2-yl) quinoline hydrochloride]
substitution for 2-BFI discriminative stimulus [3]: fully substituted | substitution for phenyzoline discriminative stimulus (male Sprague-Dawley rats [1]): completely substituted | dose that significantly suppresses food-maintained operant responding (rats): 17.8 mg/kg | duration of discriminative stimulus effects (male Sprague-Dawley rats [2]; 5.6 mg/kg BU224 i.p.): 120 min | effect on response rate (male Sprague-Dawley rats [2]; rat, in vivo): without significantly altering response rate

Cl.c1ccc2oc(C3=NCCN3)cc2c1 [2-BFI, 2-(2-Benzofuranyl)-2-imidazoline hydrochloride]
substitution for phenyzoline discriminative stimulus (male Sprague-Dawley rats [1]): only partially substituted | dose that significantly suppresses food-maintained operant responding (rats): 10 mg/kg | substitution for BU224 discriminative stimulus (male Sprague-Dawley rats [2]): fully substituted

c1ccc(-c2ncc3cc(-n4ccnc4)ccc3n2)cc1 [CR4056, 2-phenyl-6-(1H-imidazol-1-yl) quinazoline]
IC50 (I2 receptors; read-out: IC50 at I2 receptor, ref Ferrari et al., 2011): 596 nM

CNC1(c2ccccc2Cl)CCCCC1=O (centres unmarked) [ketamine]
substitution for BU224 discriminative stimulus (male Sprague-Dawley rats [2]): partial or less substitution

C(=C\c1ccccc1)/C1=NCCN1 [tracizoline, 2-styryl-4,5-dihydro-lH-imidazole]
selectivity for I2 receptors over I1 receptors (I2 receptors; ref Pigini et al., 1997): 10 fold | selectivity for I2 receptors over α2 adrenoceptors (I2 receptors; ref Pigini et al., 1997): 7431 fold

c1ccc2c(c1)OCC(C1=NCCN1)O2 (centres unmarked) [idazoxan]
substitution for 2-BFI discriminative stimulus [3]: fully substitutes | substitution for phenyzoline discriminative stimulus (male Sprague-Dawley rats [1]): fully substituted | substitution for BU224 discriminative stimulus (male Sprague-Dawley rats [2]): fully substituted

Cc1nccc2c1[nH]c1ccccc12 [harmane]
substitution for 2-BFI discriminative stimulus [3]: fully substitute | substitution for phenyzoline discriminative stimulus (male Sprague-Dawley rats [1]): only partially substitutes | substitution for CR4056 discriminative stimulus [4]: does not substitute | substitution for BU224 discriminative stimulus (male Sprague-Dawley rats [2]): fully substitutes

CN[C@@H](C)Cc1ccccc1 [methamphetamine]
substitution for phenyzoline discriminative stimulus (male Sprague-Dawley rats [1]): partial substitution | substitution for BU224 discriminative stimulus (male Sprague-Dawley rats [2]): partial or less substitution

COc1cccc([C@H](O)C2CCN(CCc3ccc(F)cc3)CC2)c1OC [MDL100907, (R)-(2,3-dimethoxyphenyl)-[1-[2-(4-fluorophenyl)ethyl]-4-piperidyl] methanol]
antagonism of the discriminative stimulus effects of phenyzoline (male Sprague-Dawley rats [1]): failed to antagonize | antagonism of the discriminative stimulus effects of BU224 (male Sprague-Dawley rats [2]): failed to antagonize

c1ccc(CCC2=NCCN2)cc1 [phenyzoline, 4,5-dihidro-2-(2-phenylethyl)-1H-imidazole]
inhibition at 0.01 µM (D3): -4.1% | inhibition at 0.01 µM (alpha 2C): 29.6% | inhibition at 0.01 µM (D5): -11.6% | inhibition at 0.01 µM (M3): -2% | inhibition at 0.01 µM (H3): 10.4% | duration of discriminative stimulus effects (male Sprague-Dawley rats [1]; 32 mg/kg phenyzoline i.p.): 90 min | effect on response rate (male Sprague-Dawley rats [1]; rat, in vivo): without significantly altering response rate | inhibition at 0.01 µM (D4): 9.1% | inhibition at 0.01 µM (5-HT1D): 5% | substitution for CR4056 discriminative stimulus [4]: fully substituted | inhibition at 0.01 µM (κ opioid receptor): 7.1% | inhibition at 0.01 µM (5-HT3): -13.3% | inhibition at 0.01 µM (H4): 15.2% | inhibition at 0.01 µM (D1): 0.9% | Ki (alpha 2A): 851 nM | inhibition at 0.01 µM (M5): 25.9% | inhibition at 0.01 µM (NET): 6.8% | inhibition at 0.01 µM (M4): -0.5% | inhibition at 0.01 µM (δ opioid receptor): -2.7% | inhibition at 0.01 µM (5-HT5A): 4.6% | inhibition at 0.01 µM (μ opioid receptor): 5.4% | inhibition at 0.01 µM (alpha 2B [5]): 6.3% | inhibition at 0.01 µM (M1): -14.1% | inhibition at 0.01 µM (H1): -10.9% | inhibition at 0.01 µM (5-HT2C): 14.3% | inhibition at 0.01 µM (5-HT7): 23.7% | inhibition at 0.01 µM (M2): 11.1% | inhibition at 0.01 µM (SERT): 21.9% | inhibition at 0.01 µM (5-HT1B): -2.6% | inhibition at 0.01 µM (β 2): 22.9% | inhibition at 0.01 µM (alpha 1A): 17.3% | inhibition at 0.01 µM (alpha 2B [6]): 42.7% | inhibition at 0.01 µM (β 3): -5.5% | inhibition at 0.01 µM (DAT): 43.6% | inhibition at 0.01 µM (5-HT2A): 38.4% | inhibition at 0.01 µM (5-HT1E): -4.2% | inhibition at 0.01 µM (β 1): -10.1% | inhibition at 0.01 µM (D2): -7.3% | Ki (5-HT1A): > 10000 nM | inhibition at 0.01 µM (alpha 1D): -0.6%

NCCCCN=C(N)N [agmatine]
substitution for BU224 discriminative stimulus (male Sprague-Dawley rats [2]): partial or less substitution

O=C1CC[C@@]2(O)[C@H]3Cc4ccc(O)c5c4[C@@]2(CCN3CC2CC2)[C@H]1O5 [naltrexone]
antagonism of the discriminative stimulus effects of phenyzoline (male Sprague-Dawley rats [1]): failed to antagonize | antagonism of the discriminative stimulus effects of BU224 (male Sprague-Dawley rats [2]): failed to antagonize
